Earlier results, collected in patent US9910020B1, “Methods and articles for identifying objects using encapsulated perfluorocarbon tracers” (Copilot Ventures Fund III LLC, priority 2005, dated 2018).

Experiments:
[1] = test system: benzphetamine-N-demethylase; details: following PFD treatment, rats
[2] = test system: cytochrome P-450 IIA1 (a.k.a. cytochrome P450b); details: following PFD treatment, rats; as with phenobarbital induction
aldrin-epoxidase = details: following PFD treatment, rats
[3] = test system: cytochrome P-450 IA1 and IA1; details: following PFD treatment, rats; induced by 3-methylcholanthrene-type inducers
cytochrome P450 IV = details: following PFD treatment, rats; induced by fatty acids and perfluoronated fatty acids
cytochrome P-450 = details: PFD given to rats; hepatic metabolizing enzymes
[4] = test system: cytochrome P-450 IIA2 (a.k.a. cytochrome P450e); details: following PFD treatment, rats; as with phenobarbital induction

Structure (SMILES): FC1(F)C(F)(F)C(F)(F)C2(F)C(F)(F)C(F)(F)C(F)(F)C(F)(F)C2(F)C1(F)F (stereo not shown) [PFD, perfluorodecalin]
- activity of benzphetamine-N-demethylase [1]: increased
- activity of cytochrome P-450 IIA1, increase [2]: approximately two-fold
- activity of aldrin-epoxidase (aldrin-epoxidase): increased
- activities of cytochrome P-450 IA1 and IA1 [3]: unaffected
- activity of cytochrome P450 IV (cytochrome P450 IV): unaffected
- induction of cytochrome P-450 (cytochrome P-450): induce cytochrome P-450 in a manner similar to phenobarbital
- activity of cytochrome P-450 IIA2, increase [4]: approximately two-fold
